Test [1] has as its system Colon 26. Description: […] activity evaluated as tumor suppression against colon 26 murine tumor model at a dose 160 mg/kg after intravenous administration. The class given is functional, Mus musculus.
Test [2] has as its system Colon 26. Description: In vitro cytotoxicity against colon 26 adenocarcinoma cell line was evaluated. As to conditions: Mus musculus. The class given is functional, cell-based.
Another test concerns the target Tubulin (Bos taurus, UniProt Q6B856+Q862L2+Q862F3). Description: Tubulin polymerization inhibitory activity using bovine brain tubulin. The class given is functional.
In test [3] the test system is Colon 26. Description: […] activity evaluated as tumor suppression against colon 26 murine tumor model at a dose 5 mg/kg after intravenous administration. The format is functional, organism-based. More on the design: dose 5 mg/kg. To be noted: Mus musculus.
Test [4] relates to Colon 26. Description: […] activity evaluated as tumor suppression against colon 26 murine tumor model at a dose 80 mg/kg after intravenous administration. The format is functional, Mus musculus.
Test [5] relates to Colon 26. Put plainly: […] activity evaluated as tumor suppression against colon 26 murine tumor model at a dose 160 mg/kg after subcutaneous administration. The class given is functional, Mus musculus.
Test [6] relates to Colon 26. Put plainly: […] activity evaluated as tumor suppression against colon 26 murine tumor model at a dose 40 mg/kg after intravenous administration. The format is functional, Mus musculus.
Test [7] deals with Colon 26. Description: […] activity evaluated as tumor suppression against colon 26 murine tumor model at a dose 20 mg/kg after intravenous administration. The format is functional, Mus musculus.

From ChEMBL document CHEMBL1130664, “Syntheses and antitumor activity of cis-restricted combretastatins: 5-membered heterocyclic analogues” (Bioorg Med Chem Lett, 1998) come the findings set out here.

What is called IC50 is the concentration at which inhibition is half-maximal. Low values mean higher potency, high ones lower potency.

Some results are limits rather than exact numbers.

In turn, `COc1ccc(-c2nncn2-c2cc(OC)c(OC)c(OC)c2)cc1N` showed an IR with Colon 26 [1] of 47%. In addition, the IC50 in the test on Colon 26 [2] came to 840 nM; against Tubulin, 4000 nM.
For `COc1ccc(-c2nnc(N)n2-c2cc(OC)c(OC)c(OC)c2)cc1N`, the figures for the IC50 in the test with Colon 26 [2] and against Tubulin were above 3000 nM and above 10000 nM, respectively.
`COc1ccc(-c2nnc(O)n2-c2cc(OC)c(OC)c(OC)c2)cc1N`: the results for the IC50 with Colon 26 [2] and on Tubulin were above 3000 nM and above 10000 nM, respectively.
In turn, CISPLATIN returned an IR in the test with Colon 26 [3] of 64%.
Turning to `COc1ccc(-c2c([Si](C)(C)C)n[nH]c2-c2cc(OC)c(OC)c(OC)c2)cc1N`, the IC50 was above 3000 nM in the test with Colon 26 [2] and above 10000 nM against Tubulin.
`COc1ccc(-c2sc(NN)nc2-c2cc(OC)c(OC)c(OC)c2)cc1N`: the IC50 is 21.1 nM with Colon 26 [2] and 3000 nM at Tubulin. This molecule also registered an IR in the test with Colon 26 [4] of 55%.
For the molecule `COc1ccc(-c2nnnn2-c2cc(OC)c(OC)c(OC)c2)cc1N`, the IR in the test on Colon 26 [5] amounted to 89%. Besides, the IC50 in the test on Colon 26 [2] came to 7.2 nM; against Tubulin it was 2000 nM.
Regarding `COc1ccc(-c2nnc(C)n2-c2cc(OC)c(OC)c(OC)c2)cc1N`, the IC50 with Colon 26 [2] is above 3000 nM; at Tubulin, above 10000 nM.
For the molecule `COc1ccc(-c2scnc2-c2cc(OC)c(OC)c(OC)c2)cc1N`, the IR in the test with Colon 26 [1] is reported as 66%. In addition, the IC50 with Colon 26 [2] was determined as 14.5 nM; at Tubulin, 3000 nM.
In the test on Colon 26 [2], `COc1ccc(/C=C\c2cc(OC)c(OC)c(OC)c2)cc1N.Cl` registered an IC50 of 2.8 nM. Also, the IR in the test with Colon 26 [6] is recorded as 73%.
Regarding `COc1ccc(-c2sc(C)nc2-c2cc(OC)c(OC)c(OC)c2)cc1N`, the values for the IC50 with Colon 26 [2] and at Tubulin were 2040 nM and 2000 nM, respectively. Moreover, the IR in the test on Colon 26 [6] worked out at 24%.
For `COc1ccc(-c2sc(N)nc2-c2cc(OC)c(OC)c(OC)c2)cc1N` the same measures were 57.5 nM, 1000 nM and 75%.
`COc1ccc(-c2c[nH]nc2-c2cc(OC)c(OC)c(OC)c2)cc1N`: in the test on Colon 26 [7], the IR turned out to be 0%. In addition, the results for the IC50 in the test on Colon 26 [2] and against Tubulin were 8.4 nM and 3000 nM, respectively.
